Measured values taken from patent US20100132066A1, “AGROBACTERIUM-MEDIATED METHOD FOR PRODUCING TRANSFORMED PLANT WITHOUT SELECTION STEP” (JAPAN TOBACCO INC., priority 2007, published 2010).

How the values were obtained:
[1] = test system: Immature embryos (variety: A188); test: Transformation efficiency with regeneration medium containing blasticidin S (Example 4); type: cell-based, Maize; conditions: for Number of immature embryos Regenerated: about 2 weeks, 46 inoculated
[2] = test system: Maize (variety: A188) immature embryos; test: Regeneration of whole plants from immature embryos cultured on coculture medium supplemented with various types of auxin (Example 1); type: cell-based; conditions: auxin 1.5 mg/l in coculture medium; for Regeneration rate (%): 7 days, no selection step, LSZ medium 30 mg/l hygromycin about 2 weeks, LBA4404 (pSB134), 25 immature embryos; for Vigor: mean score 0-3 of regenerated plants, 2 weeks on regeneration medium
From the text: As used herein, the term “vigor” is intended to mean the growth vigor of a regenerated plant. The vigor of a plant may be measured by any known technique used in the art. For example, in the case of maize, scoring may be performed as follows for each transformed plant tissue after the regeneration step: transformed plant tissue showing no regeneration=0, transformed plant tissue giving a regenerated shoot whose maximum length is less than 5 mm=1, transformed plant tissue giving a regenerated shoot whose maximum length is 5 mm to less than 2 cm=2, and transformed plant tissue giving a regenerated shoot whose maximum length is 2 cm or longer=3, followed by calculating a mean value for all transformed plant tissues to thereby determine their vigor. The method of evaluation of vigor is not limited to this technique, and appropriate modifications may be made to well-known techniques, e.g., depending on the type of target to be evaluated.
25 immature embryos were provided for each test. The bar graph (vertical axis on the left side) represents the vigor of regenerated plants, the line graph (vertical axis on the right side) represents the regeneration rate (calculated by dividing the number of immature embryos showing regeneration in each test by the number of inoculated immature embryos), and the horizontal axis represents the type of auxin contained in a coculture medium. The auxin concentration in the coculture medium was set to 1.5 mg/l for each test. The vigor of regenerated plants was evaluated by scoring as follows: immature embryo showing no regeneration=0, immature embryo giving a regenerated shoot whose maximum length is less than 5 mm=1, immature embryo giving a regenerated shoot whose maximum length is 5 mm to less than 2 cm=2, and immature embryo giving a regenerated shoot whose maximum length is 2 cm or longer=3.
Maize (variety: A188) immature embryos (1.0 to 1 5 mm in size) at 7 to 14 days after pollination were aseptically collected and washed once with LS-inf liquid medium (Non-patent Publication No. 11), followed by pretreatment (thermal treatment at 46° C. for 3 minutes and centrifugation at 15,000 rpm for 10 minutes) to increase gene transfer efficiency. In LS-inf liquid medium containing 100 μM acetosyringone, Agrobacterium strain LBA4404 (pSB134) (Non-patent Publication No. 27) was suspended at about 1.0×10^9 cfu/ml to prepare an inoculum. The thermally-treated and centrifuged immature embryos were mixed with the inoculum, vortexed for 30 seconds, and then allowed to stand for 5 minutes at room temperature.
The number of immature embryos which regenerated into whole plants was determined, and the regenerated plants were examined for their vigor.

[3] = test system: Immature embryos (variety: A188); test: Effect of dicamba and 2,4-D in coculture medium on regeneration (Example 2, FIG. 3); type: cell-based, Maize; conditions: for vigor of regenerated plants: mean score 0-3, coculture medium with this auxin alone (1.5 mg/l), selection step eliminated, FIG. 3
From the text: FIG. 3 is a graph showing the effects of the dicamba/2,4-D ratio on the plant regeneration rate from cocultured immature embryos and on the vigor of regenerated plants. 38 immature embryos were provided for each test. The bar graph (vertical axis on the left side) represents the vigor of regenerated plants, the line graph (vertical axis on the right side) represents the regeneration rate (calculated by dividing the number of immature embryos showing regeneration in each test by the number of inoculated immature embryos), and the horizontal axis represents the percentage of dicamba contained in a coculture medium. The numerical values on the horizontal axis mean that auxin is contained in the coculture medium at the following ratios: 0 mg/l dicamba+1.5 mg/l 2,4-D (0% dicamba), 0.375 mg/l dicamba+1.125 mg/l 2,4-D (25% dicamba), 0.75 mg/l dicamba+0.75 mg/l 2,4-D (50% dicamba), 1.125 mg/l dicamba+0.375 mg/l 2,4-D (75% dicamba), and 1.5 mg/l dicamba+0 mg/l 2,4-D (100% dicamba). The vigor of regenerated plants was evaluated by scoring as follows: immature embryo showing no regeneration=0, immature embryo giving a regenerated shoot whose maximum length is less than 5 mm=1, immature embryo giving a regenerated shoot whose maximum length is 5 mm to less than 2 cm=2, and immature embryo giving a regenerated shoot whose maximum length is 2 cm or longer=3.
The vector U0009B shown in FIG. 2 and SEQ ID NO: 1 was constructed by adding necessary elements to a vector having pSB11 (Non-patent Publication No. 28) as a skeletal structure. […] The number of immature embryos which regenerated into whole plants was determined, and the regenerated plants were examined for their vigor.

[4] = 2 mg/l blasticidin S in regeneration medium
[5] = higher percentage of dicamba (0-100%, rest 2,4-D, total 1.5 mg/l) in coculture medium

| SMILES | Regeneration rate (%) [2] [%] | vigor of regenerated plants [3] | Vigor [2] | other results |
| --- | --- | --- | --- | --- |
| CN(CC[C@H](N)CC(=O)N[C@H]1C=C[C@H](n2ccc(N)nc2=O)O[C@@H]1C(=O)O)C(=N)N [blasticidin, blasticidin S] |  |  |  | GUS− [1, 4]: 12; Number of immature embryos GUS+ (B) [1, 4]: 19; Striped, dotted (C) [1, 4]: 14; Number of immature embryos Regenerated [1, 4]: 45; Number of immature embryos Regenerated ([1]; 2 mg/l blasticidin S in regeneration medium, listed as blasticidin S): Almost all; B/A (%) ([1]; 2 mg/l blasticidin S, GUS+ per inoculated embryos): 41.3%; C/A (%) ([1]; 2 mg/l blasticidin S, striped/dotted per inoculated embryos): 3.04% |
| O=C(O)COc1ccc(Cl)cc1Cl [2,4-D, 2,4-dichlorophenoxyacetic acid] | 84.0 | 0.3 |  |  |
| Nc1c(Cl)c(Cl)nc(C(=O)O)c1Cl [Picloram, 4-amino-3,5,6-trichloropicolinic acid] | 76.4 |  | 1.2 |  |
| O=C(O)c1cc(I)cc(I)c1I [TIBA, 2,3,5-triiodobenzoic acid] | 4.0 |  | 0.1 |  |
| COc1c(Cl)ccc(Cl)c1C(=O)O [Dicamba, 3,6-dichloro-o-anisic acid] | 100 | 2.3 | 1.5 | growth of the regenerated plants [3, 5]: more vigorous growth; regeneration rate [3, 5]: higher regeneration rate |
| O=C(O)COc1cc(Cl)c(Cl)cc1Cl [2,4,5-T, 2,4,5-trichlorophenoxyacetic acid] | 84.0 |  | 1.5 |  |
